Measured values from patent publication US20110230659A1, “CYCLOBUTYL PURINE DERIVATIVE, ANGIOGENESIS PROMOTING AGENT, LUMEN FORMATION PROMOTING AGENT, NEUROCYTE GROWTH PROMOTING AGENT, AND DRUG” (NATIONAL UNIVERSITY CORPORATION KAGAWA UNIVERSITY, priority 2008, published 2011).

What was measured:
[1] = system: Human umbilical vein endothelial cells (HUVEC); assay: Measurement of cell proliferation (Cell Counting Kit-8); assay type: cell-based; settings: HUVEC, 48 hours
Description: Sample solutions were prepared by dissolving 2-Cl—C.OXT-A in physiological saline so as to achieve predetermined concentrations (0.5, 1, 5, 10, 50, 100 mmol/l). Then, the sample solutions containing 2-Cl—C.OXT-A at the predetermined concentrations respectively were added to HuMedia-EB2 media (Kurabo) to which 2 v/v % inactivated fetal bovine serum (FBS) had been added so that their concentrations became 10 v/v %. Thus, cell proliferation media were prepared. The final concentrations of 2-Cl—C.OXT-A in the cell proliferation media were 50, 100, 500 μmol/l, 1, 5, and 10 mmol/1.
Human umbilical vein endothelial cells (HUVEC) suspended in a HuMedia-EG2 medium (Kurabo) were inoculated into each of gelatin-coated wells of a 96-well plate at a density of 3×10^3 cells per well, and cultured for 24 hours. 24 hours after the start of the culture, the medium was removed, and 100 μl of the cell proliferation medium was added to each well. The cells were cultured for another 48 hours. After the completion of the culture, a color reaction was caused using a Cell Counting Kit-8 (Dojindo Laboratories). 2 hours after the start of the reaction, the absorbance at 450 nm was measured using a microplate reader. As a control, a HuMedia-EB2 medium (Kurabo) to which 2 v/v % inactivated fetal bovine serum (FBS) had been added was used instead of the cell proliferation medium to carry out the culture, and a color reaction was caused and the absorbance was measured in the same manner as in the above. Then, using the following equation (I), the relative absorbance in the culture using each of the cell proliferation media containing 2-Cl—C.OXT-A at the predetermined concentrations was calculated.

[2] = system: ERK; assay: ERK activation (phosphorylation) immunoblot in HUVEC; assay type: cell-based, human; settings: for relative value (−fold) of pERK: 100 μmol/l
Description: (§1) First, to a HuMedia-EB2 medium (Kurabo) to which 2 v/v % inactivated fetal bovine serum (FBS) had been added, 2-Cl—C.OXT-A was added so that its concentration became 100 μmol/l. Thus, a medium was prepared. Using the medium, human umbilical vein endothelial cells (HUVEC) were cultured for predetermined periods (0, 10, 20, 30, 45, and 60 minutes).
After the culture, cells were collected. The collected cells were lysed by adding a cell lysis buffer (SDS-lysis buffer) thereto, and heat-denatured at 95° C. for 5 minutes. The solubilized protein in an amount corresponding to 5 v/v % of the heat-denatured cell lysate was subjected to electrophoresis using 10% SDS-polyacrylamide gel, whereby the solubilized protein was transferred onto a nitrocellulose membrane (Amersham Biosciences). To 20 ml of TBS-T having the following composition, skim milk (Wako) was added so that its concentration became 5%, thus preparing a blocking solution. The resultant nitrocellulose membrane was immersed in the blocking solution and shaken at room temperature for 1 hour.
(§2) Primary antibodies shown below were diluted 1000-fold by adding them to 5% bovine serum albumin (Sigma)-containing TBS-T, thus preparing a primary antibody solution. The nitrocellulose membrane after being subjected to the blocking was immersed in the primary antibody solution, and shaken at room temperature for 1 hour. The resultant nitrocellulose membrane was immersed in the TBS-T and washed by being shaken for 10 minutes. This washing operation was carried out three times in total.
as §2, with “Secondary” for “Primary”, “20000-fold” for “1000-fold”, “to” for “to 5% bovine serum albumin (Sigma)-containing”, “secondary” for “primary”, “having undergone” for “after being subjected to”, “reaction with the primary antibodies” for “blocking”
(§3) The enzymes were visualized with SuperSignal (registered trademark) West Pico Chemiluminescent Substrate (Pierce), and detected by being exposed to RX—U X-ray film (FUJIFILM Corporation). From the detected bands, the respective phosphoenzymes and total enzymes were quantified using an NIH image software. Furthermore, the relative value (−fold) of each phosphoenzyme was calculated by substituting the measured value of the phosphoenzyme into the following equation (III).
Relative value(−fold)of phosphoenzyme=(B/D)/(A/C) (III)
In the present example, the effect of 2-Cl—C.OXT-A of Example 1 and C.OXT-G of Comparative Example 2 on the activation (phosphorylation) of ERK was examined. In the present example, the amount of each enzyme was measured and the relative value (−fold) of each phosphoenzyme was calculated in the same manner as in Example 3, except that: a medium to which 2-Cl—C.OXT-A had been added so as to achieve predetermined concentrations (0, 10 and 100 μmol/l) and a medium to which 100 μmol/l C.OXT-G had been added were used; the culture period after the addition was set to 20 minutes: as the primary antibodies, only an anti-phospho ERK polyclonal antibody (Catalog No. 9101, Cell Signaling Technology) and an anti-total ERK monoclonal antibody (Catalog No. 610408, BD Transduction Laboratory) were used; as the secondary antibody for ERK, a sheep HRP-labeled anti-mouse IgG antibody (Pierce) was used; and as a secondary antibody of pERK, a sheep HRP-labeled anti-rabbit IgG antibody (Pierce) was used.
In the present example, the effect of PD98059 as an MEK inhibitor on the ERK activation (phosphorylation) by 2-Cl—C.OXT-A used in Example 1 was examined. […]

[3] = system: MEK; assay: MEK phosphorylation immunoblot in HUVEC; assay type: cell-based, human; settings: 100 μmol/l; 15 minutes after the addition
Description: as §1
After the culture, cells were collected. The collected cells were lysed by adding a cell lysis buffer (SDS-lysis buffer) thereto, and heat-denatured at 95° C. for 5 minutes. […]
as §3, with “(III). […]” for “(III).”
In the present example, the effect of 2-Cl—C.OXT-A used in Example 1 on the phosphorylation of MEK was examined. MEK is a protein kinase involved in the angiogenesis signal transduction pathway and located upstream of ERK measured in Example 3, and acts to promote angiogenesis. […]

Nc1nc(Cl)nc2c1ncn2C1CC(CO)C1CO (stereo not drawn) [2-Cl—C.OXT-A, 6-amino-2-chloro-9-[trans-trans-2,3-bis(hydroxymethyl)cyclobutyl]purine]
relative absorbance (cell proliferation) ([1]; final concentration 50 μmol/l to 1 mmol/l, relative to control): higher than 1
cell proliferation ([1]; final concentration 5 mmol/l or higher): suppressed in a concentration-dependent manner
relative value (−fold) of pERK ([2]; Example 3, 20 minutes after the addition): about 11 fold
pERK, concentration dependence ([2]; Example 4, 0, 10 and 100 μmol/l, 20 minutes): increased in a manner dependent on the concentration
relative value (−fold) of pERK ([2]; Example 4, 20 minutes): about 10 fold
pERK ([2]; Example 6, medium No. 2: 2-Cl—C.OXT-A 100 μmol/l, no PD98059): increased
relative value (−fold) of pMEK [3]: about 3.5 fold
